# Earlier results, collected in patent publication US6465462B1, “Substituted triazolo pyridazine derivatives as inverse agonists of the GABAAα5 receptor subtype” (Merck Sharp & Dohme Ltd., priority 1996, dated 2002).
# Experiments:
# [1] = reported by McNamara and Skelton, Psychobiology 21:101-108
# [2] = in vivo
structure (smiles),measurement,setting,value
COC(=O)c1cc2c(cn1)[nH]c1ccccc12 [β-CCM],spatial learning in the Morris watermaze,[1],enhanced spatial learning
same,proconvulsant effect,[2],proconvulsant
